Experiments:
[1] = molecular target: T1, human μ opiate receptor (Homo sapiens, UniProt P35372); experiment: Affinity for the human μ opiate receptor ([3H]-naloxone displacement, CHO-K1 receptor membrane preparation, SPA); type: binding; conditions: test concentration of 1 μM
T1 construct: purchased PerkinElmer Life Sciences, Zaventem, Belgium RB-HOM; host or cells: CHO-K1 cells (membrane preparation)
Method in brief: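 CHO-K1 membranes expressing human μ receptor incubated 90 min at room temperature with 1 nmol/l [3H]-naloxone and WGA-SPA beads in 50 mmol/l Tris-HCl, 0.06% BSA; 100 μmol/l naloxone defines non-specific binding. Values are % inhibition of specific binding at 1 μM; IC50 converted to Ki by Cheng-Prusoff.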

[2] = molecular target: T2, bradykinin 1 receptor (B1R) of the rat (Rattus norvegicus, UniProt P97583); experiment: Functional investigation on the rat bradykinin 1 receptor (B1R), Ca2+ FLIPR assay in CHO K1 rB1R cells; type: cell-based; conditions: B1R antagonism rat; test substance 10 μM; Ca2+ FLIPR, CHO K1 rB1R cells
T2 construct: expressed in transfected cells; host or cells: CHO K1 cells
T2 sequence (P97583 1-337): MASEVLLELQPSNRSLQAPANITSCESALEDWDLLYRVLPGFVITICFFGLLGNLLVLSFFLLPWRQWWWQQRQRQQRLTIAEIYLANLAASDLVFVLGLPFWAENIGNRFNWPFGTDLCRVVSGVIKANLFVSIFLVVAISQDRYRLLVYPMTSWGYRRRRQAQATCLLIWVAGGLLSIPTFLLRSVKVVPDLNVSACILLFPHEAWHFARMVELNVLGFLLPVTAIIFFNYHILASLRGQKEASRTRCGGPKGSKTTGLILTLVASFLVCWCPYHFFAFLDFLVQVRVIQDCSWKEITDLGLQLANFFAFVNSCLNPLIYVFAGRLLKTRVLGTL
Method in brief: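 Stably transfected CHO K1 cells loaded with Fluo-4; FLIPR Ca2+ fluorescence peak (ex 488/em 540 nm). Compound added first (agonism vs Lys-Des-Arg9-bradykinin ≥50 nM human, Des-Arg9-bradykinin 10 μM rat), then after 10-20 min agonist at EC80; antagonism as % inhibition, IC50 from concentration series, n=2-3, N≥2.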

T1 sequence (P35372 whole entry): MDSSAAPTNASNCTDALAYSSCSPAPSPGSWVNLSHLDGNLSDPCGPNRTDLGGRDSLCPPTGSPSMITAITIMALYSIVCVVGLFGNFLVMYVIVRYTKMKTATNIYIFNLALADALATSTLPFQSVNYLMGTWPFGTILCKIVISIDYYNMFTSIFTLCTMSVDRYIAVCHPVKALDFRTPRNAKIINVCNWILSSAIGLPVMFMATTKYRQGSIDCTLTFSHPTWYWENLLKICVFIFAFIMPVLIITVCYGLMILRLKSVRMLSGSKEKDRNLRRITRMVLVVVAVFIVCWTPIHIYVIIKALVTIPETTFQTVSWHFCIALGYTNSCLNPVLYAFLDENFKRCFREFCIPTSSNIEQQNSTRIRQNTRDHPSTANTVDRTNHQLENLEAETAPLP

| Compound | μ (binding on the μ opioid receptor, % inhibition) [1] [%] | B1R Ant. r [10 μM] % Inhibition [2] [%] |
| --- | --- | --- |
| COc1ccc(S(=O)(=O)N2CCC(OCC(=O)NCCC3CCC(C(c4ccc(Cl)cc4)N(C)C)CC3)C2)cc1OC (stereo not drawn) [Example 338] | 69 | 27 |
| CN(C)C(c1ccc(F)cc1)C1CCC(CNC(=O)COC2CCCCC2N(C)S(=O)(=O)c2ccc(Cl)c(Cl)c2)CC1 (stereo not drawn) [Example 359] | 60 | −4 |
| CN(C)C(c1ccc(F)cc1)C1CCC(CCNC(=O)COCC2CCCCN2S(=O)(=O)c2ccc(Cl)c(Cl)c2)CC1 (stereo not drawn) [Example 337] | 64 | −23 |
| CN(C)C(c1cccc(F)c1)C1CCC(CCNC(=O)COCCN2CCN(S(=O)(=O)c3ccccc3)CC2)CC1 (stereo not drawn) [Example 325] | 68 | 6 |
| COc1cc(C)c(S(=O)(=O)N2CCC(OCC(=O)NCC3CCC(C(c4cccc(F)c4)N(C)C)CC3)CC2)c(C)c1C (stereo not drawn) [Example 287] | 71 | −1 |
| CCN(CCOCC(=O)NCC1CCC(C(c2ccc(Cl)cc2)N(C)C)CC1)S(=O)(=O)c1c(C)cc(OC)c(C)c1C (stereo not drawn) [Example 310] | 61 | 33 |
| CN(C)C(c1ccc(Cl)cc1)C1CCC(CNC(=O)COC2CCCN(S(=O)(=O)c3ccccc3)C2)CC1 (stereo not drawn) [Example 301] | 69 | 18 |
| CN(C)C(c1cccc(F)c1)C1CCC(CNC(=O)COCCN(Cc2ccccc2)S(=O)(=O)c2ccccc2)CC1 (stereo not drawn) [Example 296] | 64 | 24 |
| COc1ccc(S(=O)(=O)N2CCCCC2COCC(=O)NCCC2CCC(C(c3ccc(Cl)cc3)N(C)C)CC2)cc1 (stereo not drawn) [Example 311] | 67 | 64 |
| CN(C)C(c1cccc(F)c1)C1CCC(CCNC(=O)COC2CCCN(S(=O)(=O)c3ccccc3)C2)CC1 (stereo not drawn) [Example 326] | 67 | −6 |
| COc1cc(C)c(S(=O)(=O)N(C)CCOCC(=O)NCC2CCC(C(c3ccc(Cl)cc3)N(C)C)CC2)c(C)c1C (stereo not drawn) [Example 298] | 64 | 14 |
| CN(C)C(c1cccc(F)c1)C1CCC(CNC(=O)COC2CCCN(S(=O)(=O)c3ccccc3)C2)CC1 (stereo not drawn) [Example 309] | 69 | −2 |
| CN(C)C(c1ccc(F)cc1)C1CCC(NC(=O)COC2CCN(S(=O)(=O)c3ccc(Cl)cc3Cl)C2)CC1 (stereo not drawn) [Example 290] | 67 | 37 |
| COc1ccc(S(=O)(=O)N2CCCCC2CCOCC(=O)NCC2CCC(C(c3ccc(Cl)cc3)N(C)C)CC2)cc1 (stereo not drawn) [Example 312] | 61 | 31 |
| CN(C)C(c1cccc(F)c1)C1CCC(NC(=O)COCCN(C)S(=O)(=O)c2cccc(C(F)(F)F)c2)CC1 (stereo not drawn) [Example 297] | 74 | 16 |
| COc1ccc(S(=O)(=O)N2CCCCC2COCC(=O)NC2CCC(C(c3cccc(F)c3)N(C)C)CC2)c(OC)c1 (stereo not drawn) [Example 322] | 70 | 6 |
| CN(C)C(c1ccc(F)cc1)C1CCC(NC(=O)COCCN(C)S(=O)(=O)c2ccc(OC(F)(F)F)cc2)CC1 (stereo not drawn) [Example 361] | 59 | 31 |
| CN(C)C(c1ccc(Cl)cc1)C1CCC(CCNC(=O)COCCN(C)S(=O)(=O)c2ccc(Cl)cc2)CC1 (stereo not drawn) [Example 347] | 63 | 56 |
| COc1cc(C)c(S(=O)(=O)N(C)CCOCC(=O)NCCC2CCC(C(c3ccc(Cl)cc3)N(C)C)CC2)c(C)c1C (stereo not drawn) [Example 317] | 62 | 18 |
| COc1ccc(S(=O)(=O)N2CCCC2COCC(=O)NCC2CCC(C(c3ccc(Cl)cc3)N(C)C)CC2)cc1 (stereo not drawn) [Example 351] | 63 | 34 |
| CN(C)C(c1ccc(Cl)cc1)C1CCC(CNC(=O)COCCN(C)S(=O)(=O)c2c(Cl)cc(Cl)cc2Cl)CC1 (stereo not drawn) [Example 318] | 65 | 3 |

| Compound | μ (binding on the μ opioid receptor, % inhibition) [1] [%] | B1R Ant. r [10 μM] % Inhibition [2] [%] |
| --- | --- | --- |
| CN(C)C(c1ccc(F)cc1)C1CCC(NC(=O)COC2CCN(S(=O)(=O)c3cccc(C(F)(F)F)c3)C2)CC1 (stereo not drawn) [Example 330] | 54 | 16 |
| COc1ccc(S(=O)(=O)N2CCCCC2COCC(=O)NCC2CCC(C(c3cccc(F)c3)N(C)C)CC2)cc1OC (stereo not drawn) [Example 329] | 66 | 9 |
| COc1ccc(S(=O)(=O)N2CCCCC2CCOCC(=O)NCC2CCC(C(c3ccc(F)cc3)N(C)C)CC2)cc1 (stereo not drawn) [Example 350] | 61 | 35 |
| COc1ccc(S(=O)(=O)N2CCCCC2COCC(=O)NCCC2CCC(C(c3cccc(F)c3)N(C)C)CC2)c(OC)c1 (stereo not drawn) [Example 281] | 77 | 18 |
| CN(C)C(c1ccc(Cl)cc1)C1CCC(CNC(=O)COCCN(C)S(=O)(=O)c2ccc(Cl)cc2)CC1 (stereo not drawn) [Example 284] | 70 | 32 |
| CN(C)C(c1cccc(F)c1)C1CCC(CNC(=O)COCCN(C)S(=O)(=O)c2ccc(OC(F)(F)F)cc2)CC1 (stereo not drawn) [Example 303] | 66 | 29 |
| CN(C)C(c1cccc(F)c1)C1CCC(CNC(=O)COCCN(C)S(=O)(=O)c2cccc(C(F)(F)F)c2)CC1 (stereo not drawn) [Example 302] | 75 | 0 |
| Cc1cc(C)c(S(=O)(=O)N2CCC(OCC(=O)NC3CCC(C(c4ccc(F)cc4)N(C)C)CC3)C2)c(C)c1 (stereo not drawn) [Example 332] | 58 | 32 |
| CN(C)C(c1cccc(F)c1)C1CCC(CNC(=O)COCCN2CCN(S(=O)(=O)c3ccccc3)CC2)CC1 (stereo not drawn) [Example 308] | 60 | 17 |
| CN(C)C(c1cccc(F)c1)C1CCC(NC(=O)COC2CCN(S(=O)(=O)c3ccccc3)CC2)CC1 (stereo not drawn) [Example 335] | 58 | 2 |
| COc1ccc(S(=O)(=O)N2CCCCC2COCC(=O)NCC2CCC(C(c3ccc(Cl)cc3)N(C)C)CC2)cc1 (stereo not drawn) [Example 321] | 70 | 77 |
| CN(C)C(c1ccccc1)C1CCC(CNC(=O)COC2CCN(S(=O)(=O)c3ccccc3)CC2)CC1 (stereo not drawn) [Example 300] | 66 | 7 |
| COc1cc(C)c(S(=O)(=O)N(C)CCOCC(=O)NCCC2CCC(C(c3ccc(F)cc3)N(C)C)CC2)c(C)c1C (stereo not drawn) [Example 354] | 61 | 44 |
| COc1cc(C)c(S(=O)(=O)N2CCC(CCOCC(=O)NCC3CCC(C(c4cccc(F)c4)N(C)C)CC3)CC2)c(C)c1C (stereo not drawn) [Example 319] | 71 | 11 |
| COc1cc(C)c(S(=O)(=O)N2CCCC(OCC(=O)NC3CCC(C(c4cccc(F)c4)N(C)C)CC3)C2)c(C)c1C (stereo not drawn) [Example 279] | 77 | 7 |
| COc1cc(C)c(S(=O)(=O)N2CCN(CCOCC(=O)NCCC3CCC(C(c4ccc(Cl)cc4)N(C)C)CC3)CC2)c(C)c1C (stereo not drawn) [Example 320] | 65 | −8 |
| CN(C)C(c1ccc(F)cc1)C1CCC(NC(=O)COCCN(C)S(=O)(=O)c2ccc(F)cc2)CC1 (stereo not drawn) [Example 357] | 57 | 27 |
| COc1cc(C)c(S(=O)(=O)N2CCC(OCC(=O)NCCC3CCC(C(c4cccc(F)c4)N(C)C)CC3)C2)c(C)c1 (stereo not drawn) [Example 307] | 73 | 94 |
| CN(C)C(c1ccc(Cl)cc1)C1CCC(CCNC(=O)COCCN(C)S(=O)(=O)c2ccc(Cl)cc2Cl)CC1 (stereo not drawn) [Example 291] | 65 | 36 |
| CN(C)C(c1cccc(F)c1)C1CCC(CNC(=O)COC2CCN(S(=O)(=O)c3ccccc3)C2)CC1 (stereo not drawn) [Example 355] | 66 | 28 |
| CN(C)C(c1ccc(Cl)cc1)C1CCC(CNC(=O)COCCN(Cc2ccccc2)S(=O)(=O)c2ccccc2)CC1 (stereo not drawn) [Example 343] | 62 | −15 |
